The source made the active and inactive calls. No cut-off for these calls is given here. Bounds are passed on as bounds.

The subject of data set [1] is Pseudomonas aeruginosa. The data set is described as follows: Antibiofilm activity against wild-type Pseudomonas aeruginosa PAO1 assessed as inhibition rate at 10 uM incubated for 24 hrs by crystal violet staining based assay relative to control. Type of data set: functional.
In data set [2] the test system is Pseudomonas aeruginosa. Kind of data set: Antibacterial activity against wild-type Pseudomonas aeruginosa PAO1 assessed as bacterial growth inhibition by CLSI based broth-microdilution method. Type of data set: functional. For orientation: In broth dilution the organism is exposed to a series of concentrations in liquid medium.
Data set [3] concerns Pseudomonas aeruginosa. Kind of data set: Inhibition of swarming motility in Pseudomonas aeruginosa PAO1 incubated for 16 hrs. Type of data set: functional, organism-based. The following applies: dose 1.25-20 µM.
Data set [4] is described as follows: Inhibition of quorum sensing system in Pseudomonas aeruginosa PAO1 harboring pqsA-gfp assessed as decrease in pqsA expression measured for 12 hrs by fluorescence based assay. The following applies: dose 1.25-20 µM.
In data set [5] the test system is Pseudomonas aeruginosa. The data set is described as follows: Antibiofilm activity against wild-type Pseudomonas aeruginosa PAO1 at 2.5 uM incubated for 24 hrs by crystal violet staining based assay relative to control. Type of data set: functional.
The test system of another data set is Vero. The data set is described as follows: Anti-virulence effect in African green monkey Vero cells infected with Pseudomonas aeruginosa assessed as increase in cell survival incubated for 24 hrs by MTT assay. Type of data set: functional, cell-based. The following applies: Chlorocebus sabaeus, dose <= 20.0 µM. (Tetrazolium assays rely on reduction of a dye to a coloured formazan, in cell work by metabolically active cells.)

Data set [6] deals with Pseudomonas aeruginosa. Kind of data set: Effect on rhamnolipid level in Pseudomonas aeruginosa PAO1 at 1.25 to 20 uM incubated for 24 hrs by absorbance based assay. The class given is functional, organism-based. The settings on record: dose 1.25-20 µM.
Data set [7] in a line: Inhibition of quorum sensing system in Pseudomonas aeruginosa PAO1 harboring lasB-gfp assessed as decrease in lasB expression measured for 12 hrs by fluorescence based assay. The following applies: dose 1.25-20 µM.
Data set [8] can be described thus: Anti-virulence effect in African green monkey Vero cells infected with Pseudomonas aeruginosa assessed as cell survival at 20 uM incubated for 24 hrs by MTT assay (reference value: 37.7 %). The class given is functional. The settings on record: Chlorocebus sabaeus, read-out: Activity.
For data set [9], the system named is Pseudomonas aeruginosa. Kind of data set: Anti-virulence effect in Pseudomonas aeruginosa PAO1 assessed as decrease in elastase level incubated for 24 hrs by fluorescence based assay. The settings on record: dose 1.25-20 µM. Type of data set: functional, organism-based.
The subject of data set [10] is Pseudomonas aeruginosa. Kind of data set: Anti-virulence effect in Pseudomonas aeruginosa PAO1 assessed as decrease in pyocyanin level incubated for 48 hrs by absorbance based assay. The class given is functional, organism-based. The following applies: dose 1.25-20 µM.
The subject of data set [11] is Pseudomonas aeruginosa. Kind of data set: Antibiofilm activity against wild-type Pseudomonas aeruginosa PAO1 at 20 uM incubated for 24 hrs by confocal laser scanning microscopy. Type of data set: functional, organism-based.
Data set [12] can be described thus: Cytotoxicity against African green monkey Vero cells assessed as cell viability at 3.125 to 50 uM incubated for 24 hrs by MTT assay. Type of data set: toxicity, cell-based. The settings on record: chlorocebus sabaeus, dose 3.125-50 µM.
In data set [13] the test system is Pseudomonas aeruginosa. The data set is described as follows: Antibiofilm activity against wild-type Pseudomonas aeruginosa PAO1 incubated for 24 hrs by crystal violet staining based assay. The class given is functional, organism-based.
In data set [14] the test system is Pseudomonas aeruginosa. Kind of data set: Synergistic activity against Pseudomonas aeruginosa PAO1 assessed as reduction in ciprofloxacin MIC […] at 20 uM relative to control. The class given is functional. Also on record: scale not given: the % may be the effect or the level left.
The test system of data set [15] is Pseudomonas aeruginosa. Kind of data set: Effect on rhlA expression in Pseudomonas aeruginosa PAO1 harboring rhlA-gfp at 1.25 to 20 uM measured for 12 hrs by fluorescence based assay. The settings on record: dose 1.25-20 µM. Type of data set: functional.

For `COc1ccc2sc(SCC(=O)NCc3c(O)c(=O)cc(C)n3C)nc2c1`, the inhibition at 10 µM with Pseudomonas aeruginosa [1] was found to be 7.27%. In the data set on Pseudomonas aeruginosa [2], the MIC was above 128 µM.
For `Cc1cc(=O)c(O)c(CNC(=O)CSc2nc3cc(F)ccc3[nH]2)n1C`, in that order: 34.7% and above 128 µM.
For `Cc1cc(=O)c(O)c(CNC(=O)CSc2nccn2C)n1C`, in that order: 30% and above 128 µM.
With `Cc1cc(=O)c(O)c(CNC(=O)CSc2nc3ccc(F)cc3o2)n1C`, the inhibition at 10 µM in the data set with Pseudomonas aeruginosa [1] is 25.4%. For the same compound, the MIC in the data set on Pseudomonas aeruginosa [2] is above 128 µM.
As for `Cc1cc(=O)c(O)c(CNC(=O)CSc2nc3cc([N+](=O)[O-])ccc3[nH]2)n1C`, the inhibition entry (in the data set with Pseudomonas aeruginosa [3]; in data set [4]; in [7]) was “Dose-Dependent Effect” each time. Also, in the data set on Pseudomonas aeruginosa [5], the inhibition at 2.5 µM was above 30%. Also, the Activity entry with Vero is “Dose-Dependent Effect”; in the data set with Pseudomonas aeruginosa [9], “Dose-Dependent Effect”; in the data set on Pseudomonas aeruginosa [10] it was “Dose-Dependent Effect”; in data set [12] it was “Non-Toxic”; in the data set on Pseudomonas aeruginosa [13] (dose 1.25-20 µM), “Dose-Dependent Effect”; in the data set with Pseudomonas aeruginosa [14] it was around 50%. In addition, the result with Pseudomonas aeruginosa [6] and with Pseudomonas aeruginosa [15] was inactive. The viability at 20 µM in data set [8] was 71.5%. The inhibition at 10 µM with Pseudomonas aeruginosa [1] amounted to 51.5%. In the data set on Pseudomonas aeruginosa [2], the MIC is above 128 µM. Moreover, the outcome in the data set on Pseudomonas aeruginosa [11] was Active. The compound also returned an IC50 with Pseudomonas aeruginosa [13] (PAO1, 24 h) of 10.6 µM.
On to `CCOc1ccc2[nH]c(SCC(=O)NCc3c(O)c(=O)cc(C)n3C)nc2c1`, for which, in the data set with Pseudomonas aeruginosa [1], the inhibition at 10 µM is -17.5%. For the same compound, the MIC with Pseudomonas aeruginosa [2] was above 128 µM.
For `Cc1cc(=O)c(O)c(CNC(=O)CSc2nccs2)n1C`, in that order: 46.4% and above 128 µM.
For `Cc1cc(=O)c(O)c(CNC(=O)CSc2nc3cc(C(F)(F)F)ccc3o2)n1C`, in that order: 39.5% and above 128 µM.
For `Cc1cc(=O)c(O)c(CNC(=O)CSc2nc3cc(Cl)ccc3s2)n1C`, in that order: 5.12% and above 128 µM.
Turning to `Cc1ccc2oc(SCC(=O)NCc3c(O)c(=O)cc(C)n3C)nc2c1`, in the data set on Pseudomonas aeruginosa [1], the inhibition at 10 µM amounted to 45.8%. The MIC with Pseudomonas aeruginosa [2] was above 128 µM.
Take `Cc1nnc(SCC(=O)NCc2c(O)c(=O)cc(C)n2C)s1`: the inhibition at 10 µM with Pseudomonas aeruginosa [1] is -10.2%. Further, the MIC with Pseudomonas aeruginosa [2] was above 128 µM.
In the same order, the values of `Cc1cc(=O)c(O)c(CNC(=O)CSc2ncc[nH]2)n1C` are 46.1% and above 128 µM.
In the same order, the values of `Cc1cc(=O)c(O)c(CNC(=O)CSc2nc3ccccc3o2)n1C` are 26.2% and above 128 µM.
With `Cc1cc(=O)c(O)c(CNC(=O)CSc2nc3c(C(C)(C)C)cccc3[nH]2)n1C`, the inhibition at 10 µM in the data set on Pseudomonas aeruginosa [1] worked out at 14.5%. The MIC in the data set with Pseudomonas aeruginosa [2] is above 128 µM.
Regarding `Cc1cc(=O)c(O)c(CNC(=O)CSc2ccccn2)n1C`, the MIC in the data set on Pseudomonas aeruginosa [2] was above 128 µM.
The same measure, in the same setting: to `Cc1cc(=O)c(O)c(CNC(=O)CSc2nc3cc(C(F)(F)F)ccc3[nH]2)n1C` belongs above 128 µM.
With `COc1ccc(SCC(=O)NCc2c(O)c(=O)cc(C)n2C)cc1`, the inhibition at 10 µM in the data set on Pseudomonas aeruginosa [1] is -13.6%. The MIC in the data set with Pseudomonas aeruginosa [2] is above 128 µM.
In the same order, the values of `Cc1cc(=O)c(O)c(CNC(=O)CSc2nncs2)n1C` are 16.9% and above 128 µM.
For `Cn1cc(O)c(=O)cc1CNC(=O)CSc1nc2ccccc2s1`, in that order: -5.24% and above 128 µM.
For `Cc1cc(=O)c(O)c(CNC(=O)CSc2nc3c([N+](=O)[O-])cccc3o2)n1C`, in that order: 30.6% and above 128 µM.
With `Cc1cc(=O)c(O)c(CNC(=O)CSc2nc3c(C(C)(C)C)cccc3o2)n1C`, the inhibition at 10 µM with Pseudomonas aeruginosa [1] was 19.4%. Also, the MIC in the data set on Pseudomonas aeruginosa [2] is above 128 µM.
In the same order, the values of `Cc1cc(=O)c(O)c(CNC(=O)CSc2nc3cc([N+](=O)[O-])ccc3s2)n1C` are 10.1% and above 128 µM.
In the same order, the values of `Cn1cc(O)c(=O)cc1CNC(=O)CSc1nc2ccc([N+](=O)[O-])cc2s1` are 29.1% and above 128 µM.
For `Cc1cc(=O)c(O)c(CNC(=O)CSc2nc3ccccc3s2)n1C`, in that order: 22.1% and above 128 µM.
Take `COc1ccc2oc(SCC(=O)NCc3c(O)c(=O)cc(C)n3C)nc2c1`: the inhibition at 10 µM with Pseudomonas aeruginosa [1] amounted to 19.6%. Also, in the data set with Pseudomonas aeruginosa [2], the MIC was above 128 µM.
On to `Cc1cc(=O)c(O)c(CNC(=O)CSc2nc3cc(Cl)ccc3[nH]2)n1C`, for which the MIC in the data set on Pseudomonas aeruginosa [2] is above 128 µM.
`Cc1cc(=O)c(O)c(CNC(=O)CSc2nc3ccccc3[nH]2)n1C`: in the data set on Pseudomonas aeruginosa [1], the inhibition at 10 µM was determined as 44.6%. Besides, the MIC with Pseudomonas aeruginosa [2] is above 128 µM.
For `Cc1cc(=O)c(O)c(CNC(=O)CSc2nc3ccc(F)cc3s2)n1C`, in that order: 40.4% and above 128 µM.
For `Cc1cccc2sc(SCC(=O)NCc3c(O)c(=O)cc(C)n3C)nc12`, in that order: 20.8% and above 128 µM.
With `Cc1cc(=O)c(O)c(CNC(=O)CSc2ncccn2)n1C`, the inhibition at 10 µM in the data set on Pseudomonas aeruginosa [1] came out at 7.18%. In the data set with Pseudomonas aeruginosa [2], the minimal inhibitory concentration (MIC) is above 128 µM.
For the compound `Cn1cc(O)c(=O)cc1CNC(=O)CSc1nc2cc([N+](=O)[O-])ccc2[nH]1`, the inhibition at 10 µM in the data set with Pseudomonas aeruginosa [1] is -15.2%. The MIC in the data set with Pseudomonas aeruginosa [2] is above 128 µM.
For `Cc1cc(=O)c(O)c(CNC(=O)CSc2nc3cc(C#N)ccc3[nH]2)n1C`, in that order: 41.3% and above 128 µM.
In the same order, the values of `Cc1cc(=O)c(O)c(CNC(=O)CSc2nc3cc(F)ccc3s2)n1C` are 5% and above 128 µM.
On to `Cc1cccc2oc(SCC(=O)NCc3c(O)c(=O)cc(C)n3C)nc12`, for which the MIC in the data set on Pseudomonas aeruginosa [2] was above 128 µM.
On to `Cc1ccc2nc(SCC(=O)NCc3c(O)c(=O)cc(C)n3C)sc2c1`, for which, in the data set on Pseudomonas aeruginosa [1], the inhibition at 10 µM is 31.2%. The minimal inhibitory concentration (MIC) in the data set on Pseudomonas aeruginosa [2] is above 128 µM.
Consider `Cc1cc(=O)c(O)c(CNC(=O)CSc2ccncc2)n1C`, for which the MIC with Pseudomonas aeruginosa [2] is above 128 µM.
For the compound `COc1ccc2[nH]c(SCC(=O)NCc3c(O)c(=O)cc(C)n3C)nc2c1`, the inhibition at 10 µM in the data set with Pseudomonas aeruginosa [1] was found to be 16.3%. Further, in the data set with Pseudomonas aeruginosa [2], the MIC was above 128 µM.
In the same order, the values of `COc1ccc2nc(SCC(=O)NCc3c(O)c(=O)cc(C)n3C)sc2c1` are -22.4% and above 128 µM.
For `Cc1cc(C)nc(SCC(=O)NCc2c(O)c(=O)cc(C)n2C)n1`, the inhibition at 10 µM in the data set with Pseudomonas aeruginosa [1] is 22.6%. Moreover, in the data set on Pseudomonas aeruginosa [2], the MIC was above 128 µM.
For the compound `Cc1ccc2[nH]c(SCC(=O)NCc3c(O)c(=O)cc(C)n3C)nc2c1`, in the data set with Pseudomonas aeruginosa [1], the inhibition at 10 µM came out at 7.4%. Besides, the MIC in the data set on Pseudomonas aeruginosa [2] is above 128 µM.
For `Cc1cc(=O)c(O)c(CNC(=O)CSc2nc3cc(OC(F)F)ccc3[nH]2)n1C`, in that order: 17.6% and above 128 µM.
For `Cc1cc(=O)c(O)c(CNC(=O)CSc2nc3ccc([N+](=O)[O-])cc3s2)n1C`, in that order: 45.5% and above 128 µM.
For `Cc1cc(=O)c(O)c(CNC(=O)CSc2ccc([N+](=O)[O-])cc2)n1C`, in that order: 31.9% and above 128 µM.
For `Cc1cc(=O)c(O)c(CNC(=O)CSc2nc3c(F)cccc3o2)n1C`, the inhibition at 10 µM in the data set on Pseudomonas aeruginosa [1] was 27.6%. Also, the MIC in the data set with Pseudomonas aeruginosa [2] is above 128 µM.
For `Cc1cc(=O)c(O)c(CNC(=O)CSc2nc3cc(Cl)ccc3o2)n1C`, in that order: 41.7% and above 128 µM.
In the case of `Cc1ccc2[nH]c(SCC(=O)NCc3cc(=O)c(O)cn3C)nc2c1`, in the data set on Pseudomonas aeruginosa [1], the inhibition at 10 µM is 3.29%. Moreover, in the data set with Pseudomonas aeruginosa [2], the MIC was above 128 µM.
With `Cn1cc(O)c(=O)cc1CNC(=O)CSc1nc2ccccc2[nH]1`, the MIC with Pseudomonas aeruginosa [2] is above 128 µM.

For orientation: inhibition means the drop in the measured response relative to a control, in per cent. The term MIC denotes the lowest concentration found to suppress growth. The term IC50 denotes the concentration that inhibits the measured activity by half.

These data come from ChEMBL document CHEMBL5625198, “Design, synthesis and biological evaluation of novel 3-hydroxypyridin-4(1H)-ones based hybrids as Pseudomonas aeruginosa biofilm inhibitors” (Eur J Med Chem, 2023).
